# Results as given in patent publication US8703957B2 (Janssen Pharmaceutica NV, priority 2001, dated 2014).
# What was measured:
# Type in all cases: in vivo
# [1] = test system: inflammatory cell numbers in the broncho-alveolar lavage (BAL) fluid; assay: Inflammatory cell counts in broncho-alveolar lavage (BAL) fluid of antigen-challenged sheep; conditions: 1.0 mg/kg × 4 days, last dose 30 min prior to antigen challenge
# [2] = test system: inflammatory cell numbers in the broncho-alveolar lavage (BAL) fluid; assay: as above
# Description: Baseline dose response curves to aerosol carbachol were obtained 1-3 days prior to antigen challenge. Baseline values of specific lung resistance (SRL) were obtained and the sheep were then given a specified amount (mg) of the test compound as an inhaled aerosol at a specified time before antigen challenge. Post drug measurements of SRL were obtained and the sheep were then challenged with Ascaris suum antigen. Measurements of SRL were obtained immediately after challenge, hourly from 1-6 h after challenge and on the half-hour from 6½-8 h after challenge. Measurements of SRL were obtained 24 h after challenge followed by a 24 h post-challenge with carbachol to measure airway hyperreactivity. […] Ascaris suum antigen challenge was given at the zero time point.
# [3] = test system: Ascaris suum antigen-induced asthmatic response in conscious sheep; assay: Ascaris suum antigen-induced asthmatic response in conscious sheep: specific lung resistance and airway hyperreactivity
# Description: The efficacy of Compound 2 for the treatment of asthma was evaluated in a validated model of Ascaris suum antigen-induced asthmatic response in conscious sheep (Abraham, W. M., Pharmacology of allergen-induced early and late airway responses and antigen-induced airway hyperresponsiveness in allergic sheep, Pulmonary Pharmacology, 1989, 2, 33-40).
# Baseline dose response curves to aerosol carbachol were obtained 1-3 days prior to antigen challenge. Baseline values of specific lung resistance (SRL) were obtained and the sheep were then given a specified amount (mg) of the test compound as an inhaled aerosol at a specified time before antigen challenge. Post drug measurements of SRL were obtained and the sheep were then challenged with Ascaris suum antigen. Measurements of SRL were obtained immediately after challenge, hourly from 1-6 h after challenge and on the half-hour from 6½-8 h after challenge. Measurements of SRL were obtained 24 h after challenge followed by a 24 h post-challenge with carbachol to measure airway hyperreactivity.
# Compound 2 was administered as an aerosol at 0.1 mg/Kg/dose, twice-a-day (BID) for three consecutive days, followed by a dose on day 4, 0.5 h prior to antigen challenge. Ascaris suum antigen challenge was given at the zero time point.
# [4] = 8 h Post Antigen, 1.0 mg/kg × 4 days, last dose 30 min prior to antigen challenge
# [5] = 24 h Post Antigen, 1.0 mg/kg × 4 days, last dose 30 min prior to antigen challenge
# [6] = Baseline, 1.0 mg/kg × 4 days, last dose 30 min prior to antigen challenge
smiles,measurement,setting,value
"CN(C(=O)c1cc2ccccc2cc1C(=O)C(c1cccc2ccccc12)P(=O)(O)O)C1CCN(C(=O)c2ccc3ccccc3c2)CC1 (stereo not shown) [Compound 2, [2-[3-[[methyl[1-(2-naphthalenylcarbonyl)-4-piperidinyl]amino]carbonyl]-2-naphthalenyl]-1-(1-naphthalenyl)-2-oxoethyl]-phosphonic acid]",BAL Cell Count Eosinophils,[1]; 8 h Post Antigen,0.37 ± 0.32 × 1000/mL
same,BAL Cell Count Macrophages,[1]; 8 h Post Antigen,77.85 ± 2.36 × 1000/mL
same,BAL Cell Count Eosinophils,[1]; 24 h Post Antigen,0.04 ± 0.03 × 1000/mL
same,BAL Cell Count Neutrophils,[1]; 24 h Post Antigen,3.86 ± 0.95 × 1000/mL
same,BAL Cell Count Lymphocytes,[1]; Baseline,3.15 ± 0.79 × 1000/mL
same,BAL Cell Count Lymphocytes,[2]; [4],4.16 ± 1.10 × 1000/mL
same,BAL Cell Count Neutrophils,[2]; [4],3.17 ± 0.65 × 1000/mL
same,BAL Cell Count Lymphocytes,[2]; [5],3.72 ± 0.77 × 1000/mL
same,BAL Cell Count Macrophages,[2]; [5],75.16 ± 2.71 × 1000/mL
same,BAL Cell Count Eosinophils,[2]; [6],0.00 × 1000/mL
same,BAL Cell Count Macrophages,[2]; [6],69.06 ± 1.97 × 1000/mL
same,BAL Cell Count Neutrophils,[2]; [6],12.66 ± 2.07 × 1000/mL
same,rise in inflammatory cell numbers in the broncho-alveolar lavage (BAL) fluid,"[2]; after antigen challenge, sheep, summary of Table 5",blocked
same,"early airway response (specific lung resistance, SRL)","[3]; 0-2 h after antigen challenge, aerosol 0.1 mg/Kg/dose BID for three days plus dose on day 4, 0.5 h prior to challenge, n=4 sheep/group, FIG. 1",dramatically reduced
same,"late airway response (specific lung resistance, SRL)","[3]; 6-8 h after antigen challenge, aerosol 0.1 mg/Kg/dose BID for three days plus dose on day 4, 0.5 h prior to challenge, n=4 sheep/group, FIG. 1",completely blocked
same,delayed airway hyperreactivity measured using carbachol challenge (PC 400),"[3]; 24 h post antigen challenge, FIG. 2",completely blocked
